This passage reports IC50 results from PubChem BioAssay AID492959 (The Scripps Research Institute Molecular Screening Center, 2010).

SMILES strings stand for the structures. Activity calls are given as the source filed them.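 Rule for the calls: active = IC50 of 10 µM or lower; inactive = IC50 above 10 µM.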

The test concerns E. coli AddAB+ with T4 gene 2 phage, OD growth. In words: inhibition of AddAB recombination enzyme – absorbance, E. coli, T4 phage, dose response (AID 492959).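 Note: growth read as OD600 after 18 h at 37 °C; AddAB inhibitors let the phage kill the cells so OD falls.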 Conditions: AddAB enzyme is from H. pylori; T4 phage with nonsense-mutated gene 2.
One may read the IC50 as the midpoint of a concentration-inhibition curve. For the compound `O=C(Nc1ccc2[nH]c(=O)[nH]c2c1)c1ccc([N+](=O)[O-])o1`, the IC50 is 21.8 µM (inactive). As to `O=C(CSC1=NNC(c2ccccn2)S1)Nc1ccccc1` (stereo not drawn), the IC50 is > 118 µM (inactive). Regarding `O=C(Nc1nc(-c2cccs2)cs1)c1ccc([N+](=O)[O-])o1`, the IC50 was 12 µM (inactive).

`CCSc1nsc(NC(=O)Nc2cccc(F)c2)n1`: the IC50 is > 119 µM (inactive). For the compound `Cc1onc(-c2c(Cl)cccc2Cl)c1C(=O)N/N=C(\N)COc1ccc(Cl)cc1`, the IC50 is > 119 µM (inactive). The figure for `Cc1c(Cl)cccc1NC(=S)NCc1ccccc1Cl` is > 119 µM (inactive); for `O=C(COC(=O)COc1ccccc1)Nc1ncc([N+](=O)[O-])s1` it is > 39.5 µM (inactive); for `COc1cccc(-n2c(SCc3cc(=O)oc4cc(O)c(O)cc34)nc3ccccc3c2=O)c1` it is > 119 µM (inactive). As to `O=C(O)c1cccc(NC(=S)N/N=C/c2ccccn2)c1`, the IC50 was > 119 µM (inactive). For the compound `O=C(NC(NC(=S)Nc1ccc(Cl)c(Cl)c1)C(Cl)(Cl)Cl)c1ccco1` (stereo not drawn), the IC50 was > 119 µM (inactive). For `Cc1ccc(CNC(=O)c2ccc3c(=O)c(O)c(-c4ccc(C)cc4)[nH]c3c2)cc1`, the IC50 is > 119 µM (inactive). As to `O=C(Nc1nnc(-c2cccs2)o1)c1cccc(C(F)(F)F)c1`, the IC50 was > 39.5 µM (inactive). Consider `CCOc1cccc(/C=N/NC(=O)c2cc(-c3cccn3C)n[nH]2)c1O`, for which the IC50 is > 119 µM (inactive).

On to `CCOC(=O)c1ccc(NC(=O)Cn2cnc3cc(C)c(C)cc32)cc1`, for which the IC50 is > 119 µM (inactive). The figure for `O=[N+]([O-])c1ccc(N/N=C/c2ccc[nH]2)cc1` is > 119 µM (inactive); for `CCCCC(=O)NC(c1ccc(N(C)C)cc1)c1ccc2cccnc2c1O` (stereo not drawn) it is > 119 µM (inactive). The figure for `O=C1c2ccccc2NC(c2ccc(-c3cccc([N+](=O)[O-])c3)o2)N1O` (stereo not drawn) is > 119 µM (inactive). Turning to `COc1ccc(Nc2nnc(SCc3cn4c(C)cccc4n3)s2)cc1`, the IC50 was > 119 µM (inactive). As to `CCCC(=O)NC(c1cccs1)c1cc(Cl)c2cccnc2c1O` (stereo not drawn), the IC50 was > 119 µM (inactive). `O=C(Cn1cnc2ccccc21)Nc1ccc2c(c1)OCCCO2`: the IC50 was > 119 µM (inactive). For the compound `Oc1c(C(Nc2nc3ccccc3s2)c2ccco2)ccc2cccnc12` (stereo not drawn), the IC50 was > 119 µM (inactive). Under `O=[N+]([O-])c1ccc(/C=N/n2cnc3ccccc32)s1` stands 46.8 µM (inactive); under `COc1ccc(-c2nnc(NC(=O)c3ccc(F)cc3)o2)cc1`, > 118 µM (inactive); under `Cc1cc(C(C)(C)C)cc(C)c1CC1=NCCN1`, 19.4 µM (inactive). Regarding `O=[N+]([O-])c1cc(O)c2ncccc2c1`, the IC50 was 46.5 µM (inactive). Take `CCCC(=O)NC(c1ccco1)c1cc(Cl)c2cccnc2c1O` (stereo not drawn): the IC50 was > 119 µM (inactive). As for `O=C(Nc1nnc(-c2ccccc2)o1)c1ccc(Cl)cc1`, the IC50 is 66.5 µM (inactive). The figure for `O=Nc1ccc(O)c2ncccc12` is 9.8 µM. `COc1ccccc1NC(=O)NNC(=O)c1cc2ccccc2cc1O`: the IC50 was > 119 µM (inactive). Regarding `N#Cc1c(-c2ccccc2)ccn(Cc2cccc(Cl)c2)c1=O`, the IC50 was > 119 µM (inactive). The figure for `Cc1ccccc1NC(=O)c1ccc([N+](=O)[O-])o1` is 30.9 µM (inactive); for `Oc1cccc(C(Nc2nccs2)c2ccc3cccnc3c2O)c1` (stereo not drawn) it is > 119 µM (inactive). Take `COc1cccc(/C=N\NC(=O)c2ccc(Cn3cc(Br)c([N+](=O)[O-])n3)o2)c1O`: the IC50 is 36.6 µM (inactive). The figure for `Cc1cccc(NC(=O)Cn2cc(C(=O)c3ccco3)c3ccccc32)c1` is > 119 µM (inactive); for `CCCCC(=O)NC(c1ccccc1)c1ccc2cccnc2c1O` (stereo not drawn) it is > 118 µM (inactive).

Consider `CC(C)C(=O)NC(c1cccc([N+](=O)[O-])c1)c1ccc2cccnc2c1O` (stereo not drawn), for which the IC50 was > 119 µM (inactive). Consider `CSc1nc(N)nc2c1ncn2CC(=O)Nc1ccc(C)c(C)c1`, for which the IC50 is > 118 µM (inactive).

Consider `CCn1cc(C(=O)O)c(=O)c2cnc(N3CCN(C(=S)Nc4ccccc4C(F)(F)F)CC3)nc21`, for which the 50% inhibitory concentration (IC50) was 2.54 µM. `O=C(CN1C(=O)S/C(=C\c2ccccc2)C1=O)NNC(=O)c1ccccc1O`: the IC50 was > 119 µM (inactive). For the compound `O=C(c1ccccc1)c1c2c(cc3sc4ccccc4[n+]13)-c1cccc3cccc-2c13`, the IC50 is 14.7 µM (inactive). On to `O=C(CSc1ncnc2nc[nH]c12)c1ccc(Cl)cc1`, for which the IC50 is 63.5 µM (inactive). Take `CN1CCc2cc3c(c4c2[C@H]1[C@H](O)c1ccccc1-4)OCO3`: the IC50 is > 119 µM (inactive). For the compound `CCC(=O)NC(c1ccc(OC)cc1)c1cc(Cl)c2cccnc2c1O` (stereo not drawn), the IC50 is > 119 µM (inactive). Consider `c1ccc(-c2nnc(-c3ccccn3)nc2NC2CCCCC2)cc1`, for which the IC50 was 92 µM (inactive). Under `CCC(=O)NC(c1ccccc1OC)c1ccc2cccnc2c1O` (stereo not drawn) stands > 119 µM (inactive); under `CCOc1ccc2oc(C(=O)NNC(=O)c3ccccc3O)c(C)c2c1`, > 119 µM (inactive).

On to `O=C1c2ccccc2NC(c2ccc(-c3ccc(C(F)(F)F)cc3)o2)N1O` (stereo not drawn), for which the IC50 was > 119 µM (inactive).

Regarding `CCn1nnc(NC(=O)c2ccc([N+](=O)[O-])o2)n1`, the IC50 was 21.1 µM (inactive). For `O=C(O)c1cn(-c2ccc(N3CCCC3)c(F)c2)c2c(F)c(F)c(F)cc2c1=O`, the IC50 is 47.4 µM (inactive). On to `Cc1cc([N+](=O)[O-])ccc1-c1ccc(C2Nc3ccccc3C(=O)N2O)o1` (stereo not drawn), for which the IC50 is > 119 µM (inactive). As for `CC(=O)Nc1ccc2nc(NC(=O)c3ccc([N+](=O)[O-])o3)sc2c1`, the IC50 is > 13.2 µM (inactive). `Fc1ccc(Nc2nnc(C(F)(F)F)s2)cc1Cl`: the IC50 is 78 µM (inactive). As for `Cc1ccc(-c2oc3ccccc3c(=O)c2O)cc1`, the IC50 was > 119 µM (inactive). Under `COc1ccccc1/C=C1\SC(=S)N(CCC(=O)NNC(=O)c2ccccc2O)C1=O` stands > 119 µM (inactive); under `Oc1cccc(/C=N/Nc2ccc(Cl)nn2)c1O`, > 119 µM (inactive). Turning to `CCCC(=O)NC(c1ccc(Cl)cc1)c1ccc2cccnc2c1O` (stereo not drawn), the IC50 is > 119 µM (inactive).

Take `Cc1ccc(C(C)C)c(OCc2ccc(C(=O)N/N=C/c3ccc(O)cc3O)cc2)c1`: the IC50 was > 119 µM (inactive). In the case of `N#Cc1ccc(NC(=O)Nc2ccc(Cl)cc2)cc1`, the IC50 is > 119 µM (inactive). As to `COc1cccc(/C=C2/SC(=S)N(CC(=O)NNC(=O)c3ccccc3O)C2=O)c1`, the IC50 was > 119 µM (inactive). The figure for `CCOC(=O)c1cn(CC)c2cc(N3CCOCC3)c(F)cc2c1=O` is 36.6 µM (inactive); for `C=CCn1c(Sc2ncc([N+](=O)[O-])s2)n[nH]c1=O` it is 11.8 µM (inactive). For `CC(C)CC(=O)NC(c1cccs1)c1ccc2cccnc2c1O` (stereo not drawn), the IC50 is > 119 µM (inactive). As for `Cc1ccc(C(C)C)c(OCc2ccc(C(=O)N/N=C/c3cccc(O)c3O)cc2)c1`, the IC50 was > 119 µM (inactive).

With `CCCC(=O)NC(c1ccc(N(C)C)cc1)c1ccc2cccnc2c1O` (stereo not drawn), the IC50 is > 119 µM (inactive). `C=CC[n+]1c(/C=C2\C=Cc3cc(C)ccc3N2CC)ccc2ccccc21`: the IC50 was 32.6 µM (inactive).

For the compound `CC(C)C(=O)NC(c1ccc(Cl)cc1Cl)c1ccc2cccnc2c1O` (stereo not drawn), the IC50 is > 119 µM (inactive). `O=C(CC(O)(C(F)(F)F)C(F)(F)F)Nc1ccc(Cl)c(Cl)c1`: the IC50 is 39.1 µM (inactive). As to `O=C1CCC(=O)N(O)CCCCCNC(=O)CCC(=O)N(O)CCCCCNC(=O)CCC(=O)N(O)CCCCCN1`, the IC50 is > 119 µM (inactive).
